The assay has as its system arachidonic acid-induced ear swelling. Nature of the assay: topical arachidonic acid-induced ear swelling model in mice. It is filed as in vivo. The following applies: male ICR mice; topical application 30 min before and 15 min after arachidonic acid; measured at 90 minutes; indomethacin 14 mM (0.1 mg/20 μL), 3-(methylthio)propionitrile 375 mM (1.0 mg/20 μL). As for the experimental part: The test compounds, indomethacin (positive control), and vehicle were evaluated for anti-inflammatory activity in a topical arachidonic acid-induced ear swelling model in mice. Male ICR mice weighing 22±2 g were used and randomly divided; each group had 10 mice. Arachidonic Acid (0.5 mg in 20 μl of acetone:ethanol/1:1) was applied topically to the anterior and posterior surfaces of the right ear of each mice. Test substances and vehicle, as listed in Table 1 were similarly applied 30 min before and 15 min after arachidonic acid application. The thickness of the right ear and the left ear was measured and the difference calculated as an indication of the inflammation in the right ear. Ear swelling was measured by a Dyer model micrometer gauge at 60 and 90 minutes after arachidonic acid application as an index of inflammation. Percent inhibition was calculated according to the formula: Ic−It/Ic×100, where Ic and It refers to increase of ear thickness (mm) in control and treated mice, respectively. ANOVA and Dunnett's test were employed to ascertain significant difference between vehicle control and treated groups. Significance is set at P<0.05 level.

Each structure is given as a SMILES string.

Turning to `CSCCC#N` [3-(methylthio)propionitrile], the “% Inhibition of ear swelling” value is reported as 43%. Consider `COc1ccc2c(c1)c(CC(=O)O)c(C)n2C(=O)c1ccc(Cl)cc1` [Indomethacin], for which the “% Inhibition of ear swelling” value is 53%.

The record behind these values is patent US9474734B2, “Compounds for treating inflammation and pain” (Olatec Industries LLC, priority 2012, dated 2016).
